What was measured:
ENFs = assay: Bulk RNA-seq of ENFs cultured on TCPS in the presence of Verteporfin; type: cell-based, mouse
Procedure: Total RNA was harvested by lysing cells in Trizol reagent (Invitrogen), RNA extraction and library preparation was performed by the Stanford Functional Genomics facility using standard Qiagen kits and protocols. Directional RNA-Sal libraries were analyzed with an Agilent Bioanalyzer to ensure successful library creation, and then sequenced with the Illumina HiSeq 4000 System (2×75 bp, 150 cycles), Paired-end reads were mapped to the mouse genome reference sequence mm10 using the STAR aligner. […] It is common practice to normalize read counts by the total number of reads and the length of each transcript, yielding reads per kilobase mapped (RPKM) values. However, such analysis may be skewed towards a few highly expressed genes that dominate the total lane count. Thus, instead, counts were normalized by a size factor, calculated by taking the median of the ratios of observed counts to those of a pseudo-reference sample (whose counts are the geometric means of each gene across all samples). For hypothesis testing of differential gene transcription, the read counts were modeled according to a negative binomial distribution, with the variance considered as the sum of the shot noise term and a locally regressed non-parametric smooth function of the mean. […] Raw RNA-seq data can be accessed at the following Github repository: https://github.com/[…]. […] Ranked whole genome enrichment analyses in FIGS. 6 and 7 were performed using GSEA software developed by the Broad Institute with nominal p value and false discovery rate (FDR) cutoffs of 0.01 and 0.25, respectively. All g.Profiler and GSEA results are available in the following Github repository: https://github.com/[…]. In order to ascertain whether in vitro En-1 activation involved a shift toward a fibrotic transcriptomic profile, bulk ENFs were isolated from En-1^Cre;R26^mTmG mice and grew these cells on TCPS for 2 days (at which point ENFs remain single cells), 7 days (when ENFs form colonies), or 14 days (when ENFs activate En-1) (experimental schematic in FIG. 3, A). Cultured cells were then subjected to bulk RNA-seq analysis. Next, to assess if postnatal En-1 activation was dependent on mechanotransduction signaling, ENFs cultured on TCPS were grown in the presence of Verteporfin. After 14 days in culture, treated cells were subjected to RNA-seq. […] GO term analysis in g.

dorsal excisional wounds = assay: Tensile strength testing (Instron) of healed wounds; type: in vivo, mouse
Procedure: Tensile strength tests for unwounded skin (N=7) and PBS (N=5) or Verteporfin-treated (N=4) wounds in P60 C57BL/6 mice were conducted at POD 30 using an Instron 5565 equipped with a 100 N load cell. Dorsal skin was harvested and cut into 4 mm-by-15 mm strips. Tissue strips were then secured using custom grips with the scar positioned equidistant to each grip edge and preloaded to a force of 0.02 N to remove slack before the length of the tissue was measured using digital calipers; the width and thickness of the strips were also re-measured to confirm accurate dimensions. Finally, the skin was subjected to an extension test to failure, defined by a sharp decrease in stress with increasing strain, at a rate of 1%/s. The wound breaking force, or yield force, was determined at the maximal force before the tissue entered plastic deformation and eventual failure. True strain was calculated as the change in length divided by the original gauge length, and true stress was calculated as the force divided by the original cross-sectional area. The Young's Modulus was calculated by taking a least-squares regression of the slope during the linear, elastic portion of the stress-strain curve (R^2>0.99). […] In order to characterize the physical properties of Verteporfin-treated wounds, tensile testing was performed on unwounded skin and PBS- or Verteporfin-treated wounds after 30 days of healing.

[1] = ENFs on TCPS, 14 days with Verteporfin

verteporfin
Expression of ECM / pro-fibrotic matrix genes (ENFs; [1]): reduced expression of various ECM genes
GO term enrichment (g.Profiler) (ENFs; [1]): decreased enrichment of ECM-related terms and relatively higher muscle development-related terms
Transcriptomic shift over time in culture (RNA-seq) (ENFs; ENFs on TCPS, 14 days with Verteporfin, vs untreated cells): attenuated the transcriptomic shift observed in untreated cells
Expression of ECM / pro-fibrotic matrix genes (ENFs; ENFs on TCPS, 14 days with Verteporfin, listed as Vert): mitigated
Principal component analysis of RNA-seq data (ENFs; ENFs treated with Verteporfin for 14 days): more closely resembled untreated cells that had only been in culture for 2 days
Force-displacement and stress-strain curves (dorsal excisional wounds; after 1 month of healing): more closely resembled unwounded skin than scar
Tensile strength (wound breaking force and Young's modulus) (dorsal excisional wounds; after 30 days of healing, vs unwounded skin): did not significantly differ from that of unwounded skin

— patent US20220313658A1, “YAP Inhibition for Wound Healing” (The Board of Trustees of the Leland Stanford Junior …, priority 2019, published 2022)
